Assay results published in patent US20100292205A1, “Pyrimidone Compounds As GSK-3 Inhibitors” (PFIZER INC., priority 2006, published 2010).

What follows are molecules tested against T1, Recombinant human GSK3β (Homo sapiens, UniProt P49841) (assay: GSK-3β (Glycogen Synthase Kinase) cell free enzyme assay). Conditions: 1 μM; Examples 201-221.
T1 construct: His-tag; made in house; host or cells: Sf9 insect cells / baculovirus
T1 sequence (P49841 whole entry): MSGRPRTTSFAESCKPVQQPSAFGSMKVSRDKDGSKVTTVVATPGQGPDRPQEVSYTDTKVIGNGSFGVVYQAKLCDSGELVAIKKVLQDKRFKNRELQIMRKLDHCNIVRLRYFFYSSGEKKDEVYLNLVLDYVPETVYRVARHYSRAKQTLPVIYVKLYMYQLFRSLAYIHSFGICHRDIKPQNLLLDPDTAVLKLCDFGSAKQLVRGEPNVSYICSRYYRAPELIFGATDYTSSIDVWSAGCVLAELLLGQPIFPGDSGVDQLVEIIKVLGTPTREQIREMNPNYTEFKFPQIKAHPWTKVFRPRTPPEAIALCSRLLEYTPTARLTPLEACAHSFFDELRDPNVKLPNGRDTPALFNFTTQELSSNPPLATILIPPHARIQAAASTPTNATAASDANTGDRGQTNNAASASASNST
Format: biochemical
Outline: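 Recombinant human GSK3β, expressed in SF9/baculovirus cells and His-tag purified on Ni-NTA Superflow, was preincubated with test agent for 30 minutes at room temperature. Substrate mix was then added to start the reaction in 8 mM MOPS (pH 7.0), 10 mM magnesium acetate, 0.2 mM EDTA, 1 mM DTT, 2 uM cold ATP, 0.025 uCi/well [33P]ATP (120 uL) and 1.0 uM biotinylated peptide. Reactions ran at RT for 60 min.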
In the case of “Methyl (1R,5S)-3-(1-methyl- 6-oxo-4-pyridin-4-yl-16- dihydropyrimidin-2-yl)-38- diazabicyclo[3.2.1]octane-8- carboxylate [Example 201]”, the “Percent inhibition at 1 μM” value is reported as 89%. In the case of “Methyl (1R,5S)-8-(1-methyl- 6-oxo-4-pyridin-4-yl-16- dihydropyrimidin-2-yl)-38- diazabicyclo[3.2.1]octane-3- carboxylate [Example 202]”, the “Percent inhibition at 1 μM” value is reported as 93%. With “Methyl (3a,S5,S7,aR)-3a- methyl-5-[methyl(1-methyl- 6-oxo-4-pyridin-4-yl-16- dihydropyrimidin-2- yl)amino]octahydro-1H- indole-1-carboxylate [Example 212]” the “Percent inhibition at 1 μM” value was 93%.

Same assay, conditions: cell free enzyme assay; Examples 265-291
For `CN(c1nc(-c2ccncc2F)cc(=O)n1C)[C@H]1[C@@H]2CN(c3nc4cc(F)ccc4[nH]3)C[C@@H]21` [Example 288, 2-{[(1R,5S,6s)-3-(5-Fluoro-1H-benzimidazol-2-yl)-3-azabicyclo[3.1.0]hex-6-yl](methyl)amino}-6-(3-fluoropyridin-4-yl)-3-methylpyrimidin-4(3H)-one], the IC50 was 116 nM. Work on `COc1ccc2nc(N3C[C@@H]4[C@H](C3)[C@H]4N(C)c3nc(-c4ccncc4F)cc(=O)n3C)sc2c1` [Example 289, 6-(3-Fluoropyridin-4-yl)-2-{[(1R,5S,6s)-3-(6-methoxy-1,3-benzothiazol-2-yl)-3-azabicyclo[3.1.0]hex-6-yl](methyl)amino}-3-methylpyrimidin-4(3H)-one] yielded an IC50 of 25.1 nM. Work on `CN(c1nc(-c2ccncc2F)cc(=O)n1C)[C@H]1[C@@H]2CN(c3nnnn3Cc3cccc(OC(F)(F)F)c3)C[C@@H]21` [Example 290, 6-(3-Fluoropyridin-4-yl)-3-methyl-2-{methyl[(1R,5S,6s)-3-{1-[3-(trifluoromethoxy)benzyl]-1H-tetrazol-5-yl}-3-azabicyclo[3.1.0]hex-6-yl]amino}pyrimidin-4(3H)-one] yielded an IC50 of 27.7 nM. `CN(c1nc(-c2ccncc2F)cc(=O)n1C)[C@H]1[C@@H]2CN(c3nnnn3-c3cccc(OC(F)(F)F)c3)C[C@@H]21` [Example 291, 6-(3-Fluoropyridin-4-yl)-3-methyl-2-{methyl[(1R,5S,6s)-3-{1-[3-(trifluoromethoxy)phenyl]-1H-tetrazol-5-yl}-3-azabicyclo[3.1.0]hex-6-yl]amino}pyrimidin-4(3H)-one] gave an IC50 of 5.99 nM.
